In patent publication US20230123334A1, “AMINO LIPID COMPOUND, PREPARATION METHOD THEREFOR, AND APPLICATION THEREOF” (SHENZHEN SHENXIN BIOTECHNOLOGY CO., LTD., priority 2020, published 2023):

Test system: HEK293 cells
Experiment: Preliminary screening as DNA vectors, GFP transfection of HEK293 cells
Format: cell-based
In short: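 First, amino lipid and DOPE were vortexed in sodium acetate buffer (pH 5.6) to form liposomes. Next, these were held with 75 ng EGFP plasmid at room temperature for 30 min. Finally, HEK293 cells were added, cultured at 37° C., Hoechst-stained, and GFP+/total nuclei scored by imaging.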

[1] = amino lipid/DOPE liposome with 75 ng plasmid DNA (psin-EGFP-IRES-Puro), number of GFP-expressing cells divided by total nuclei (Hoechst)
[2] = HEK293 cells, lipid/DOPE liposome with 75 ng plasmid DNA (psin-EGFP-IRES-Puro), number of cells expressing GFP divided by total number of nuclei (Hoechst)

Compound | Absolute DNA transfection efficiency in HEK293 cells [1] [%] | Absolute DNA transfection efficiency in HEK293 cells [2] [%]
CCCCCCCCCCCCCCCCNc1nc(NCC2CCN(C)CC2)nc(SCCCCCCCCCCC)n1 [S11N16 D10] | 3.9 | –
CCCCCCCCCCCCNc1nc(NCCCN2CCOCC2)nc(SCCCCCCCCCCCC)n1 [S12N12 D8] | 0.0 | –
CCCCCCCCCCCSc1nc(NCCCCCCCCC)nc(NCCCN(C)C)n1 [S11N9 D6] | 40.1 | –
CCCCCCCCCCCNc1nc(NCCCN(C)C)nc(SCCCCCCCCCC)n1 [S10N11 D6] | 26.5 | –
CCCCCCCCCCCCSc1nc(NCCCCCCCCCCC)nc(NCCN2CCOCC2)n1 [S12N11 D2] | 0.3 | –
CCCCCCCCCCCCCCCCSc1nc(NCCCCCC)nc(NCCCN2CCOCC2)n1 [S16N6 D8] | 11.6 | –
CCCCCCCCCCCCNc1nc(NCCN2CCOCC2)nc(SCCCCCCCCC)n1 [S9N12 D2] | 13.0 | –
CCCCCCCCCCCSc1nc(NCCCCCCC)nc(NCCCN(C)C)n1 [S11N7 D6] | 34.0 | –
CCCCCCCCCCCCCCCCNc1nc(NCCCN(C)C)nc(SCCCCCC)n1 [S6N16 D6] | 22.8 | –
CCCCCCCCCCCCCCCNc1nc(NCCN2CCN(C)CC2)nc(SCCCCCCCCCCCC)n1 [S12N15 D5] | 0.2 | –
CCCCCCCCCCCCCCSc1nc(NCC2CCN(C)CC2)nc(N(CCCCCCCCCCCC)CCCCCCCCCCCC)n1 [S14^2N12 D10] | 0.0 | –
CCCCCCCCCSc1nc(NCCCCCC)nc(NCCN(C)C)n1 [S9N6 D1] | 16.1 | –
CCCCCCCCCCCCCCCNc1nc(NCCCN2CCN(C)CC2)nc(SCCCCCCC)n1 [S7N15 D9] | 17.6 | –
CCCCCCCCCCCCCCCNc1nc(NCCN2CCN(C)CC2)nc(SCCCCCCCCCC)n1 [S10N15 D5] | 3.2 | –
CCCCCCCCCCCCCCCNc1nc(NCCCN2CCOCC2)nc(SCCCCCCC)n1 [S7N15 D8] | 7.9 | –
CCCCCCCCCCCCCCCNc1nc(NCCN(C)C)nc(SCCCCCCCCCCCC)n1 [S12N15 D1] | 0.8 | –
CCCCCCCCCCCCCCCCCCSc1nc(NCCCCCCCCCCCCCCC)nc(NCCCN2CCN(C)CC2)n1 [S18N15 D9] | 0.1 | –
CCCCCCCCCCCCCCCCNc1nc(NCCN2CCCC2)nc(SCCCCCCC)n1 [S7N16 D3] | 21.2 | –
CCCCCCCCCCCCCCSc1nc(NCCCCCCCC)nc(NCCCN2CCOCC2)n1 [S14N8 D8] | 9.8 | –
CCCCCCCCCCCCCCCSc1nc(NCCCN2CCOCC2)nc(N(CCCCCCCCCCCC)CCCCCCCCCCCC)n1 [S15^2N12 D8] | 0.0 | –
CCCCCCCCCCCCCCCSc1nc(NCCCCCCCC)nc(NCC2CCN(C)CC2)n1 [S15N8 D10] | 19.4 | –
CCCCCCCCCCCCNc1nc(NCCCN2CCN(C)CC2)nc(SCCCCCCCCCC)n1 [S10N12 D9] | 3.6 | –
CCCCCCCCCCCCCCSc1nc(NCC2CCN(C)CC2)nc(SCCCCCCC)n1 [S7S14 D10] | 26.7 | –
CCCCCCCCSc1nc(NCCN2CCCC2)nc(SCCCCCC)n1 [S6S8 D3] | 2.8 | –

Compound | Absolute DNA transfection efficiency in HEK293 cells [1] [%] | Absolute DNA transfection efficiency in HEK293 cells [2] [%]
CCCCCCCCCCSc1nc(NCCCCCCCC)nc(NCCN2CCCCC2)n1 [S10N8 D4] | 2.1 | –
CCCCCCCCCCCSc1nc(NCCCCCCCCC)nc(NCCN2CCCCC2)n1 [S11N9 D4] | 1.1 | –
CCCCCCCCCSc1nc(NCCCCCCCC)nc(NCCN2CCN(C)CC2)n1 [S9N8 D5] | 30.3 | –
CCCCCCCCCCCCCNc1nc(NCCN2CCCCC2)nc(SCCCCCC)n1 [S6N13 D4] | 2.1 | –
CCCCCCCCCCCCCCCNc1nc(NCCN2CCOCC2)nc(SCCCCCCCCCCCCCC)n1 [S14N15 D2] | 0.1 | –
CCCCCCCCNc1nc(NCCN(C)C)nc(SCCCCCCCC)n1 [S8N8 D1] | 9.3 | –
CCCCCCCCCCCCCCCCSc1nc(NCCN2CCCC2)nc(N(CCCCCCCCCCCC)CCCCCCCCCCCC)n1 [S16^2N12 D3] | 0.0 | –
CCCCCCCCCCCCCCCCSc1nc(NCCCCCCC)nc(NCCN2CCCC2)n1 [S16N7 D3] | 8.9 | –
CCCCCCCCCCSc1nc(NCCCCCCC)nc(NCCN2CCOCC2)n1 [S10N7 D2] | 2.4 | –
CCCCCCCCCCCCCCCSc1nc(NCCCCCCCCCCCCC)nc(NCCN2CCN(C)CC2)n1 [S15N13 D5] | 1.9 | –
CCCCCCCCCSc1nc(NCCCCCCCC)nc(NCC2CCN(C)CC2)n1 [S9N8 D10] | 17.2 | –
CCCCCCCCCCSc1nc(NCCN2CCN(C)CC2)nc(SCCCCCCC)n1 [S7S10 D5] | 10.6 | –
CCCCCCCCCCCCCCCNc1nc(NCCN(CC)CC)nc(SCCCCCCCCC)n1 [S9N15 D7] | 4.6 | –
CCCCCCCCCCCCCCCSc1nc(NCCCCCCCCCCCC)nc(NCC2CCN(C)CC2)n1 [S15N12 D10] | 4.3 | –
CCCCCCCCCCCCSc1nc(NCCCCCCCCCCC)nc(NCCN2CCN(C)CC2)n1 [S12N11 D5] | 8.0 | –
CCCCCCCCCCCCCCCCCCNc1nc(NCCN(C)C)nc(SCCCCCCCCCC)n1 [S10N18 D1] | 9.0 | –
CCCCCCCCCCCCCCCSc1nc(NCCCCCCC)nc(NCCCN2CCOCC2)n1 [S15N7 D8] | 14.5 | –
CCCCCCCCCCCCCCSc1nc(NCCCCCCCCCCCC)nc(NCCN(C)C)n1 [S14N12 D1] | 15.3 | –
CCCCCCCCCCCCCCCCCCSc1nc(NCCN(C)C)nc(SCCCCCC)n1 [S6S18 D1] | 9.8 | –
CCCCCCCCCCCCCCCNc1nc(NCCN2CCCCC2)nc(SCCCCCCCCCCCCCCC)n1 [S15N15 D4] | 0.5 | –
CCCCCCCCCCCCCCCNc1nc(NCCN2CCCCC2)nc(SCCCCCCCC)n1 [S8N15 D4] | 0.9 | –
CCCCCCCCCSc1nc(NCCCCCC)nc(NCCCN(C)C)n1 [S9N6 D6] | 8.8 | –
CCCCCCCCCCCCCCCSc1nc(NCCCCCCCCCCC)nc(NCCCN2CCN(C)CC2)n1 [S15N11 D9] | 11.9 | –
CCCCCCCCCCSc1nc(NCCCN2CCN(C)CC2)nc(SCCCCCCC)n1 [S7S10 D9] | 23.9 | –

Compound | Absolute DNA transfection efficiency in HEK293 cells [1] [%] | Absolute DNA transfection efficiency in HEK293 cells [2] [%]
CCCCCCCCSc1nc(NCCN(CC)CC)nc(SCCCCCC)n1 [S6S8 D7] | 15.0 | –
CCCCCCCCCCCCSc1nc(NCCN2CCCC2)nc(SCCCCCCCC)n1 [S8S12 D3] | 10.9 | –
CCCCCCCCCCCCCCCCNc1nc(NCCN(C)C)nc(SCCCCCCCCCCCC)n1 [S12N16 D1] | 0.5 | –
CCCCCCCCCCCNc1nc(NCCN(CC)CC)nc(SCCCCCCC)n1 [S7N11 D7] | 9.6 | –
CCCCCCCCNc1nc(NCCCN(C)C)nc(SCCCCCCC)n1 [S7N8 D6] | 22.3 | –
CCCCCCCCCCCCCCCNc1nc(NCCN2CCOCC2)nc(SCCCCCCCCCCCC)n1 [S12N15 D2] | 0.0 | –
CCCCCCCCCCCCCCCCCCNc1nc(NCCN(C)C)nc(SCCCCCCCC)n1 [S8N18 D1] | 4.8 | –
CCCCCCCCCCCSc1nc(NCCCCCCCC)nc(NCCN2CCCCC2)n1 [S11N8 D4] | 5.9 | –
CCCCCCCCCCCSc1nc(NCCN2CCN(C)CC2)nc(SCCCCCCCC)n1 [S8S11 D5] | 10.6 | –
CCCCCCCCCCCCCCSc1nc(NCCN2CCCC2)nc(SCCCCCCC)n1 [S7S14 D3] | 8.4 | –
CCCCCCCCCCCCNc1nc(NCC2CCN(C)CC2)nc(SCCCCCCCCC)n1 [S9N12 D10] | 25.8 | –
CCCCCCCCCCCCN(CCCCCCCCCCCC)c1nc(NCCCCCCCCCCC)nc(NCCCN2CCOCC2)n1 [Compound N112N12D8] | – | 0.0
CCCCCCCCCCCCNc1nc(NCCCN(C)C)nc(SCCCCCCCCCCCC)n1 [S12N12 D6] | 9.1 | –
CCCCCCCCCCCCCCCCCCSc1nc(NCCCCCCC)nc(NCCCN2CCN(C)CC2)n1 [S18N7 D9] | 9.3 | –
CCCCCCCCCCCCN(CCCCCCCCCCCC)c1nc(NCCCCCCCCCCC)nc(NCCCN2CCN(C)CC2)n1 [Compound N112N12D9] | – | 0.1
CCCCCCCCCCCCCCCSc1nc(NCCCCCCCCCCCC)nc(NCCN(C)C)n1 [S15N12 D1] | 4.9 | –
CCCCCCCCCCCCN(CCCCCCCCCCCC)c1nc(NCCN(CC)CC)nc(SCCCCCCCCC)n1 [S9^2N12 D7] | 0.2 | –
CCCCCCCCCCCCCCSc1nc(NCCCCCC)nc(NCCN2CCCCC2)n1 [S14N6 D4] | 2.5 | –
CCCCCCCCCCCCCCCCCCNc1nc(NCCCN(C)C)nc(SCCCCCCC)n1 [S7N18 D6] | 18.4 | –
CCCCCCCCCCCCNc1nc(NCCCN2CCN(C)CC2)nc(SCCCCCCCCCCCC)n1 [S12N12 D9] | 5.1 | –
CCCCCCCCCCCCCCCCCCNc1nc(NCCN2CCOCC2)nc(SCCCCCCCCCCCCCCC)n1 [S15N18 D2] | 0.0 | –
CCCCCCCCCCCNc1nc(NCCCN(C)C)nc(SCCCCCCCCC)n1 [S9N11 D6] | 55.4 | –
CCCCCCCCCCCCCNc1nc(NCCN2CCOCC2)nc(SCCCCCC)n1 [S6N13 D2] | 1.9 | –
